This is an account of results in patent US9566277B2, “Methods of using phthalazinone ketone derivatives” (Jiangsu Hansoh Pharmaceutical Co., Ltd., priority 2010, dated 2017).

The data set in a line: Pharmacokinetics assay in SD rats (LC/MS/MS plasma concentration). It counts as in vivo. The note with it: 15 mg/kg; for Apparent Distribution Volume Vz/F / Clearance CL/F: intravenous injection; for Vd/F / CL/F: both sexes, rat, plasma, oral gavage; for Vd/F: read-out: Apparent Distribution Volume Vz/F; for CL/F: read-out: Clearance CL/F (converted). The protocol:
24 Healthy adult SD rats, male and female in half, were purchased from SINO-BRITSH SIPPR/BK LAB. ANIMAL LTD., CO, Certificate No.: SCXK (Shanghai) 2003-0002.
The intragastrical administration group: the right amount of tested compounds were weighed and dissolved in 0.5 mL of DMSO, diluted with physiological saline to 10 mL and prepared to 1.5 mg/mL.
The intravenous injection administration group: the right amount of tested compounds were weighed and added into […].
After an overnight fast, 24 healthy adult SD rats, male and female in half, were administered intragastrically at a dose of 15.0 mg/kg and an administration volume of 10 mL/kg.
The intragastrical administration group: blood samples (0.2 mL) were taken from orbital sinus at pre administration and at 0.25 hour, 0.5 hour, 1.0 hour, 1.5 hours, 2.0 hours, 3.0 hours, 4.0 hours, 6.0 hours, 7.0 hours, 9.0 hours, 12.0 hours and 24.0 hours post administration, stored in heparinized tubes and centrifuged for 20 minutes at 3,500 rpm to separate plasma. The plasma samples were stored at −20° C. The rats were fed at 2 hours after administration.
The intravenous injection administration group: blood samples (0.2 mL) were taken from orbital sinus at pre administration and at 2 minutes, 15 minutes, 0.5 hour, 1.0 hour, 2.0 hours, 3.0 hours, 4.0 hours, 6.0 hours, 8.0 hours, 12.0 hours and 24.0 hours post administration, stored in heparinized tubes and centrifuged for 20 minutes at 3,500 rpm to separate plasma. The plasma samples were stored at −20° C.
20 μL of rat blank plasmas taken at various time points after administration were added with 50 μL of internal standard solution and […] of methanol and mixed for 3 minutes by a vortexer. The mixture was centrifuged for 10 minutes at 13,500 rpm. 20 μL of the supernatant was analyzed by LC-MS/MS. The main pharmacokinetic parameters were calculated by software DAS 2.0.

As to `CNC(=O)c1nc(C(F)(F)F)n2c1CN(C(=O)c1cc(Cc3n[nH]c(=O)c4ccccc34)ccc1F)CC2` [Example 13, 7-[2-fluoro-5-[(4-oxo-3H-phthalazin-1-yl)methyl]benzoyl]-N-methyl-3-(trifluoromethyl)-6,8-dihydro-5H-imidazo[1,5-a]pyrazine-1-carboxamide], the “Apparent Distribution Volume Vz/F” value came to 4.70 ± 2.17 L/kg, the “Clearance CL/F” value came out at 12 ± 7.5 mL/min/kg, the Vd/F was 49.9 ± 52.9 L/kg and the CL/F was 74.5 mL/min/kg.
For `CCNC(=O)c1nc(C(F)(F)F)n2c1CN(C(=O)c1cc(Cc3n[nH]c(=O)c4ccccc34)ccc1F)CC2` [Example 7, N-ethyl-7-[2-fluoro-5-[(4-oxo-3H-phthalazin-1-yl)methyl]benzoyl]-3-(trifluoromethyl)-6,8-dihydro-5H-imidazo[1,5-a]pyrazine-1-carboxamide], the “Apparent Distribution Volume Vz/F” value was determined as 0.64 ± 0.19 L/kg, the “Clearance CL/F” value turned out to be 8.67 ± 4.83 mL/min/kg, the Vd/F was found to be 103 ± 134 L/kg and the CL/F is 257 mL/min/kg.
As for `O=C(c1cc(Cc2n[nH]c(=O)c3ccccc23)ccc1F)N1CCn2nc(C(F)(F)F)nc2C1` [Example 19, 4-[[4-fluoro-3-[2-(trifluoromethyl)-6,8-dihydro-5H-[1,2,4]triazolo[1,5-a]pyrazine-7-carbonyl]phenyl]methyl]-2H-phthalazin-1-one], the Vd/F came out at 7.97 ± 5.38 L/kg and the CL/F is 57.5 mL/min/kg.
